Measured values from the supplement of paper PMC10307832.

Experiments:
Test in all cases: relative viability (nuclei count vs DMSO), 5 days (fraction); higher = more cells survive
[1] = compound: C=CC(=O)N1CCC[C@@H](n2nc(-c3ccc(Oc4ccccc4)cc3)c3c(N)ncnc32)C1 [Ibrutinib] + COc1cc2c(Oc3ccc(NC(=O)C4(C(=O)Nc5ccc(F)cc5)CC4)cc3F)ccnc2cc1OCCCN1CCOCC1 [Foretinib] (partner 0.25 µM)
Summary of the method: (§1)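 Values are medians from duplicate plates. Each reflects relative viability, defined as the nuclei count of treated wells over that of vehicle wells. Lung cancer cell lines in 1536-well plates were pin-tool dosed one day after seeding with one drug alone or with a fixed anchor-drug dose plus five library-drug doses (not always all listed) in √10 steps, then fixed, stained and imaged at 4× after 5 days.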

[2] = compound: C=CC(=O)Nc1cc(-n2c(=O)ccc3cnc4ccc(-c5ccc(NS(C)(=O)=O)cc5)cc4c32)ccc1C [BMX-IN-1] + CS(=O)(=O)CCNCc1ccc(-c2ccc3ncnc(Nc4ccc(OCc5cccc(F)c5)c(Cl)c4)c3c2)o1 [Lapatinib] (partner 2 µM)
Summary of the method: as §1

[3] = compound: C=CC(=O)Nc1cc(-n2c(=O)ccc3cnc4ccc(-c5ccc(NS(C)(=O)=O)cc5)cc4c32)ccc1C [BMX-IN-1] + Cc1cc(Nc2cc(N3CCN(C)CC3)nc(Sc3ccc(NC(=O)C4CC4)cc3)n2)n[nH]1 [Tozasertib] (partner 0.1 µM)
Summary of the method: as §1

[4] = compound: C=CC(=O)Nc1cc(-n2c(=O)ccc3cnc4ccc(-c5ccc(NS(C)(=O)=O)cc5)cc4c32)ccc1C [BMX-IN-1] + O=C(CCCCCCC(=O)Nc1ccccc1)NO [Vorinostat] (partner 1 µM)
Summary of the method: as §1

Cell Line: SK-MES-1
- relative viability ([1]; first compound 0.005 µM): 1.03
- relative viability ([1]; first compound 0.01581 µM): 0.884
- relative viability ([1]; first compound 0.05 µM): 0.841
- relative viability ([1]; first compound 0.1581 µM): 0.989
- relative viability ([1]; first compound 0.5 µM): 0.582
- relative viability ([2]; first compound 0.02 µM): 0.473
- relative viability ([2]; first compound 0.2 µM): 0.466
- relative viability ([2]; first compound 0.6325 µM): 0.489
- relative viability ([2]; first compound 2 µM): 0.439
- relative viability ([3]; first compound 0.02 µM): 1.12
- relative viability ([3]; first compound 0.2 µM): 1.15
- relative viability ([3]; first compound 0.6325 µM): 1.07
- relative viability ([3]; first compound 2 µM): 0.884
- relative viability ([4]; first compound 0.02 µM): 1.1
- relative viability ([4]; first compound 0.2 µM): 1.18
- relative viability ([4]; first compound 0.6325 µM): 1.45
- relative viability ([4]; first compound 2 µM): 0.717
